Test results published in publication PMC8307904, “Synthesis and Structure of Novel Copper(II) Complexes with N,O- or N,N-Donors as Radical Scavengers and a Functional Model of the Active Sites in Metalloenzymes” (International Journal of Molecular Sciences, 2021).
Entries after “also recorded” stand apart in the source; their conditions may differ. Read-outs that look alike come from different tables or passages of the source. Values belong to the compound of their own block, whether it stands above or below them.

Experiments:
[1] = design: method as in PMID 24406400; conditions: aqueous solution; cited from earlier work
[2] = ABTS radical assay (free radical scavenging); assay type: biochemical
Protocol: We investigated the free radical scavenging ability of the selected ligands and their newly synthesised complexes using the ABTS assay. 2,2′-Azinobis-[3-ethylbenzthiazoline-6-sulfonic acid] (ABTS) was dissolved in Milli-Q water to yield a 7 mM solution. The ABTS radical cation solution was prepared by allowing the ABTS solution to react with the K2S2O8 solution (final concentration 2.45 mM) for 16 h in the dark at room temperature. It has been reported that the extinction coefficient of ABTS^•+ radicals at 734 nm is 1.5 × 10^4 mol^−1 L cm^−1. Using the Beer–Lambert law, ABTS^•+ radical concentrations were calculated. To determine the antioxidant capacity of the complex solutions and standard antioxidant (Trolox), the ABTS solution was diluted with 5 mM PBS (pH 7.4) to an absorbance at 732 nm of 0.7 ± 0.1 After the addition of different volumes (0–1 mL) of each compound solution to 2.5 mL of diluted ABTS^•+, the absorbance was measured at 30 min. All samples were analysed in triplicate. The ABTS^•+radical scavenging activity (AA%) was calculated using the following equation: AA% = ((Acontrol − Asample)/(Acontrol)) × 100, where Acontrol is the absorbance of the blank control (containing ABTS^•+ solution without test sample) and Asample is the absorbance of the test sample. The antioxidant activity was described as the 50% inhibition concentration (IC50). The IC50 values were calculated from regression lines where x is the concentration of complex or ligand in mM and y is the percent inhibition of the analysed compound.

[3] = tested on: total antioxidant status (TAS); assay: TAS level (RANDOX test) in patients' blood samples after addition of the mimetic; assay type: biochemical, human; conditions: post-chemotherapy group, 25 µg/mL, versus samples without complex
From the text: (§1) The present study was based on 20 women of the Regional Hospital in Kielce who had previously undergone therapy for diagnosed breast tumour, and 10 healthy volunteers (samples were anonymised). Patients were divided into subgroups those after chemotherapy (n = 10) and after radiotherapy (n = 10). The protocol and procedures were undertaken according to the Helsinki Declaration and were approved by the Bioethics Committee of the Świętokrzyska Medical Chamber in Kielce (permission number 1/2015-B). Before obtaining blood, patients and healthy subjects signed informed consent and agreed to the use of the samples for research purposes. Approximately 5 mL of blood was taken from the patients by venous puncture. Blood samples were collected in 3 mL tubes containing EDTA as an anticoagulant, and in tubes with no anticoagulant. Tubes were centrifuged at 3500 rpm for 15 min to obtain plasma and serum, respectively. Erythrocytes were washed with 0.9% sodium chloride. […]
(§2) The activities of TAS, SOD, CAT and GPx were measured using commercial kits, according to the manufacturers’ instructions. […]
The TAS level was evaluated by RANDOX test (Randox Laboratories, United Kingdom) following the method described by Miller et al.. […] Suppression of the blue-green colour of radicals (measured at 600 nm) is proportional to antioxidants’ concentration (TAS). The results were expressed as mmol/L serum.

CAT = CAT activity (Catalase assay kit) in patients' blood samples after addition of the mimetic; assay type: biochemical, human; conditions: post-chemotherapy group, 25 µg/mL, versus samples without complex
From the text: as §1, with “respectively.” for “respectively. Erythrocytes were washed with 0.9% sodium chloride.”
as §2
The CAT activity measurement was measured with the Catalase assay kit (Calbiochem, Merck, Darmstadt, Germany) based on the reaction of the enzyme with methanol in the presence of an optimal concentration of H2O2 [72]. The formaldehyde produced is measured colourimetrically (at 540 nm) with 4-amino-3-hydrazino- 5-mercapto-1,2,4-triazole (Purpald) as the chromogen.

[4] = tested on: MCF-7 (breast adenocarcinoma); assay: in vitro cytotoxicity / proliferation, MCF-7; assay type: cell-based, human; conditions: read-out: IC50 (inhibits proliferation of 50% of cells)
From the text: (§3) For IC50 determination, the human cancer lines A549 (non-small cell lung carcinoma), HT29 (colon adenocarcinoma) and MCF-7 (breast adenocarcinoma), and a healthy mouse fibroblast cell line (BALB/3T3), were used. All tested cell lines were obtained from the American Type Culture Collection (Rockville, MD, USA) and maintained at the Cell Culture Collection of the Hirszfeld Institute of Immunology and Experimental Therapy (Wrocław, Poland). The details of the experimental conditions were described in [69]. […] IC50 values were calculated separately for each experiment, which was repeated 3–5 times.

[5] = tested on: A549 (non-small cell lung carcinoma); assay: in vitro cytotoxicity / proliferation, A549; assay type: cell-based, human; conditions: read-out: IC50 (inhibits proliferation of 50% of cells)
From the text: as §3

SOD = SOD activity (RANSOD test) in patients' blood samples after addition of the mimetic; assay type: biochemical, human
From the text: as §1, §2
The SOD activity was measured with the RANSOD test (Randox Laboratories, United Kingdom) based on the method of McCord and Fridovich. […] The superoxide dismutase activity is measured by the degree of inhibition of this reaction. […] The activity of SOD was measured spectrophotometrically at 505 nm and expressed as U/mL.

[6] = tested on: healthy mouse fibroblast cell line (BALB/3T3); assay: in vitro cytotoxicity / proliferation, BALB/3T3; assay type: cell-based; conditions: for IC50: BALB/3T3 normal cell line, read-out: IC50 (inhibits proliferation of 50% of cells)
From the text: as §3

solubility = assay type: physicochemical
Protocol: (§4) Among the synthetic compounds used for modelling biological systems, mimetics that are soluble in solvents of neutral pH are particularly favoured because they can penetrate cell membranes and, thus, be absorbed by the organism. […] Additionally, we checked the stability of selected complexes in buffer solution (PBS) at two different time points (0 min and 12 h).

[7] = stability in buffer solution (PBS) by UV-Vis; assay type: physicochemical; conditions: room temperature, 0 min and 12 h, UV-Vis spectra
Protocol: as §4

[8] = tested on: HT29 (colon adenocarcinoma); assay: in vitro cytotoxicity / proliferation, HT29; assay type: cell-based, human; conditions: read-out: IC50 (inhibits proliferation of 50% of cells)
From the text: as §3

[9] = ABTS^•+ diluted with 5 mM PBS pH 7.4, absorbance at 30 min, read-out: IC50 (ABTS radical scavenging activity)

Compound: O.O.OCc1ccccn1.OCc1ccccn1.OCc1ccccn1.OCc1ccccn1.[Cl-].[Cl-].[Cl-].[Cl-].[Mn+2].[Mn+2] [[Mn2(μ-Cl)2(2-CH2OHpy)4]Cl2·2H2O]
TOF (catalytic activity, H2O2 decomposition) [1]: 0.0187 min⁻¹

IC50 [2, 9]: 3790 ± 230 µM
Compound: OCc1ccccn1 [2-(HOCH2)py, 2-(hydroxymethyl)pyridine, reference compound]

IC50 [2, 9]: 260 ± 30 µM
IC50 ([2]; Figure 10a and b50, unit inferred, read-out: IC50 (ABTS radical scavenging), unit inferred): 260 ± 30 µM
increase of CAT enzyme activity after addition of the mimetic (CAT): 0.18 U/mL
stability in buffer solution (PBS) [7]: confirmed the stability
Compound: [Cu(2-(HOCH2)py)3](ClO4)2 [complex 1]
increase of total antioxidant status after addition of the mimetic [3]: 0.17 U/mL
IC50 [4]: 91.7 ± 2.9 µM
IC50 [5]: 94.7 ± 3.9 µM
SOD activity higher compared to the control group (SOD; post-chemoradiotherapy group with mimetic): 4.2 U/mL
SOD activity (SOD; post-chemotherapy group, complex 25 μg/mL of blood): 211.91 U/mL
lower cytotoxicity against normal cell line compared to cisplatin ([6]; BALB/3T3, versus cisplatin): about 30 times
IC50 [6]: 106 ± 4.2 µM
solubility in water (solubility): soluble in water; also recorded: good solubility in water
IC50 [8]: 98.5 ± 2.7 µM

Compound: N.N.[Cl][Pt][Cl] [cisplatin, reference compound]
IC50 [6]: 3.33 ± 0.38 µM
IC50 [8]: 9.23 ± 0.77 µM

IC50 [2, 9]: 7000 µM
Compound: OCCc1ccccn1 [2-(HOCH2CH2)py, 2-(hydroxyethyl)pyridine, reference compound]

Compound: OC(O)(c1ccccn1)c1ccccn1.OC(O)(c1ccccn1)c1ccccn1.[Cu+2].[O-][Cl+3]([O-])([O-])[O-].[O-][Cl+3]([O-])([O-])[O-] [complex 5, [Cu(py2C(OH)2)2](ClO4)2]
IC50 [2, 9]: 24500 ± 500 µM
solubility in water (solubility): soluble in water
stability in buffer solution (PBS) [7]: confirmed the stability

Compound: OCCc1ccccn1.OCCc1ccccn1.[Cu+2].[Cu+2].[O-]CCc1ccccn1.[O-]CCc1ccccn1.[O-][Cl+3]([O-])([O-])[O-].[O-][Cl+3]([O-])([O-])[O-] [complex 3, [Cu2(2-(HOCH2CH2)py)2(2-(OCH2CH2)py)2](ClO4)2]
IC50 [2, 9]: 620 ± 50 µM
solubility in water (solubility): soluble in water
stability in buffer solution (PBS) [7]: confirmed the stability
